Contractile activity and Ki data for two compounds are collected here from US6514970B1, “Urotensin-II receptor antagonists” (SmithKline Beecham Corporation, priority 1999, dated 2003).

In one assay the test system is rat-isolated aorta. The conditions noted are these: cited from earlier work.
A further assay has as its system human and rat GPR-14. Kind of assay: Radioligand binding ([125I] h-U-II, HEK-293 cell membranes). As to conditions: [125I] h-U-II binding to HEK-293 membranes with cloned GPR-14; species not given. How it is done: HEK-293 cell membranes containing stable cloned human and rat GPR-14 (20 ug/assay) were incubated with 200 pM [125I] h-U-II (200 Ci/mmol^−1 in the presence of increasing concentrations of test compounds in DMSO (0.1 nM to 10 uM), in a final incubation volume of 200 ul (20 mM Tris-HCl, 5 mM MgCl2). Incubation was done for 30 minutes at room temperature followed by filtration GF/B filters with Brandel cell harvester. ^125I labeled U-II binding was quantitated by gamma counting. Nonspecific binding was defined by ^125I U-II binding in the presence of 100 nM of unlabeled human U-II. Analysis of the data was performed by nonlinear least square fitting.

Take `CC(C)[C@H](NC(=O)[C@@H]1CSSC[C@H](NC(=O)[C@H](CC(=O)O)NC(=O)[C@@H]2CCCN2C(=O)[C@@H](NC(=O)[C@@H](N)CCC(=O)O)[C@@H](C)O)C(=O)N[C@@H](Cc2ccccc2)C(=O)N[C@@H](Cc2c[nH]c3ccccc23)C(=O)N[C@@H](CCCCN)C(=O)N[C@@H](Cc2ccc(O)cc2)C(=O)N1)C(=O)O` [Human Urotensin-II]: the contractile activity result in the assay on rat-isolated aorta is “most potent contractile agonist identified to date”.

In the assay on human and rat GPR-14, `CN(C)CCCOc1ccc(CN2CC[C@H](NC(=O)[C@H](Cc3ccccc3)NC(=O)c3ccc(Br)cc3)C2)cc1` [Example 15] had a Ki of 390 nM.

The Ki is a measure of affinity in units of concentration, obtained from inhibition or displacement.
